Experiments:
[1] = molecular target: T1, hα7-wt nAChR (Homo sapiens, UniProt P36544); assay: Ca2+ flux imaging (FLIPR) (Protocol A), PAM activity with choline as agonist; type: cell-based; settings: for EC50: "<5" = no top plateau at maximal concentration; for Emax: read-out: % efficacy
T1 construct: expressed in transfected cells
Excerpt: Stable expression in mammalian cells in general and rat GH4C1 cells in particular, of cDNA clones encoding the human α7 wild-type sequence (hα7-wt nAChR) and in which the coding region is placed downstream of a promoter results in the appearance of functional α7 nAChRs on the surface of the mammalian cells. This technique has provided a powerful means of assessing the function of α7 wild-type protein. Given the fact that the cation permeability of the α7 nicotinic receptor preferentially favours calcium, fluorescent imaging of Ca^2+ flux through the hα7-wt nAChR stably expressed in the GH4C1 cell line was used as a first means of assaying modulator activity of the compounds of the present invention.
• Hanks buffered saline solution (HBSS, Invitrogen, Belgium), supplemented with 10 mM HEPES (Invitrogen, Belgium), CaCl2 to a final concentration of 5 mM, 0.1% Bovine serum albumin (Sigma-Aldrich NV, Belgium), 2.5 mM probenecid (Sigma-Aldrich NV, Belgium). b) Calcium-Sensitive Dye—Fluo-4AM • Fluo-4AM (Molecular Probes, USA) was dissolved in DMSO containing 10% Pluronic acid (Molecular Probes, USA) to give a stock solution which was aliquoted and stored at −20° C. until later use. On the day of the experiment Fluo-4AM stock was defrosted and diluted in DMEM/F12 (Invitrogen, Belgium) to give a final concentration of 4 μM. c) 96-Well Plates • BD Biocoat poly-D-lysine 96-well black/clear plates (BD Biosciences, Belgium) d) Calcium Flux Measurement • A Fluorimetric Imaging Plate Reader (FLIPR, Molecular Devices Corporation, Sunnyvale, USA) was used to measure intracellular free-calcium flux signals Method
Monolayers of hα7-wt nAChR-expressing cells were grown in multi-well plates, in particular black-sided, transparent bottomed 96 well plates coated with poly-D-lysine for 24 hours prior to loading with a fluorescent calcium indicator, in a particular embodiment loading with fluo-3 or fluo-4AM for up to 90 minutes, in an even more particular embodiment loading with fluo-4AM for up to 90 minutes, and in a preferred embodiment loading with fluo-4AM for up to 60 minutes.
PAM activity was detected in real time by applying the compounds to be tested to the loaded cells along with a α7 nicotinic receptor agonist during constant monitoring of cellular fluorescence in a FLIPR. Compounds giving peak fluorescent responses greater than the response due to agonist alone, were considered to be α7 nAChR PAM's. In a particular embodiment, the α7 nicotinic receptor agonist was choline, a more particular embodiment choline applied at a sub-maximal concentration of 100 μM. In a further setting of the present invention the compounds to be tested were applied prior to the α7 nicotinic receptor agonist, in a particular embodiment up to 20 minutes prior to the agonist, a more particular embodiment up to 10 minutes prior to the agonist, and an even more particular embodiment 10 minutes prior to the agonist.
A control response to choline was calculated on each plate from the difference in peak in fluorescence in wells receiving either choline or assay buffer alone. Compounds of the present invention were tested at a concentration range from 0.1 μM to 50 μM. Compounds were considered to have an interesting activity when their efficacy was at least 500% when tested at the concentration where they have a maximal effect, typically between 0.1 μM and 50 μM (the efficacy of 100 μM choline was defined as 100% in the absence of a PAM). The compounds also have a potentiating effect on the response to choline when measured by whole-cell patch clamp electrophysiology in GH4C1 cells stably over-expressing the human wild-type α7 receptor.

T1 sequence (P36544 23-502): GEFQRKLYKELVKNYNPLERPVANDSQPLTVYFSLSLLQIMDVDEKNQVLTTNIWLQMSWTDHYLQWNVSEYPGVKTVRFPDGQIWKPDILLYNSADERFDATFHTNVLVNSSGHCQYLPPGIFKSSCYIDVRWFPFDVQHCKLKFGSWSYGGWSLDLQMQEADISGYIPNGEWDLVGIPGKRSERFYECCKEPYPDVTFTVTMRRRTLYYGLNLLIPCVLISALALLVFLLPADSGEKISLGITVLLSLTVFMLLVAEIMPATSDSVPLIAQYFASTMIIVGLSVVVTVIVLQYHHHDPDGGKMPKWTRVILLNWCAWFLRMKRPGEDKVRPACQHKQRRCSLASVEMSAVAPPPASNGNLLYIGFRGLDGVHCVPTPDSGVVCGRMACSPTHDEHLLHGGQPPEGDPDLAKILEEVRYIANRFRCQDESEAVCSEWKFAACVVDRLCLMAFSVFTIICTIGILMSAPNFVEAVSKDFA

SMILES | EC50 [1] [µM] | melting point [°C] | Emax [1] [%]
OCCn1nc(Nc2cccc(C(F)(F)F)c2)nc1-c1cnc2ccoc2c1 [Compound 79] | > 10 | 158.8 | 
NC(=O)Cn1nc(Nc2cccc(C(F)(F)F)c2)nc1-c1ccc(Cl)cc1Cl [Compound 20] | > 10 | 203.6 to 206.4 | 
OCCn1nc(Nc2cccc(C(F)(F)F)c2)nc1-c1ccnc(N2CCOCC2)c1 [Compound 38] | 3.98 | 167.4 | 
Cn1nc(Nc2ccccc2)nc1-c1ccc(Cl)cc1Cl [Compound 18] | > 10 | 193 to 194 | 
OCCn1nc(Nc2cccc(C(F)(F)F)c2)nc1-c1cnc2c(c1)OCC2 [Compound 78] | > 10 | 173.1 | 
OCCn1nc(Nc2cccc(C(F)(F)F)c2)nc1-c1cnc2ccccc2c1 [Compound 80] | 3.16 | 182 | 
CCOC(=O)Cn1nc(Nc2cccc(C(F)(F)F)c2)nc1-c1ccc2c(c1)OCO2 [Compound 81] | > 10 | 149.2 | 
COc1ccc(Cl)c(Nc2nc(-c3ccc4c(c3)OCCO4)n(CCC(=O)N(C)C)n2)c1 [Compound 196] | 3.16 | 134.7 to 136.7 | 
FCCn1nc(Nc2cccc(OC(F)(F)F)c2)nc1-c1ccnc(C2CC2)c1 [Compound 152] | 3.98 |  | 
OCCn1nc(Nc2cccc(C(F)(F)F)c2)nc1-c1ccc2c(c1)OCCO2 [Compound 3] | 3.16 | 188.3 to 190.3 | 
CNC(=O)Cn1nc(Nc2cccc(C(F)(F)F)c2)nc1-c1ccc(Cl)cc1Cl [Compound 13] | 2 | 179.9 to 182.1 | 
C[C@@H](O)Cn1nc(Nc2ccc(F)c(C(F)(F)F)c2)nc1-c1ccc(C2CC2)nc1 [Compound 100] | 3.98 |  | 
CC(O)Cn1nc(Nc2cccc(OC(F)(F)F)c2)nc1-c1ccc(C2CC2)nc1 (centres unmarked) [Compound 150] | 3.98 | 125.5 | 

Continued, values first:

EC50 [1] [µM] | melting point [°C] | Emax [1] [%] | SMILES
2.51 | 131.4 | 904 | C[C@H](O)Cn1nc(Nc2ccc(F)c(F)c2)nc1-c1ccnc(C2CC2)c1 [Compound 175]
6.31 |  |  | OCCn1nc(Nc2cccc(C(F)(F)F)c2)nc1-c1ccnc(Cl)c1 [Compound 7]
0.158 | 195.7 to 196.6 |  | CN(C)C(=O)CCn1nc(Nc2cccc(C(F)(F)F)c2)nc1-c1ccc2c(c1)OCCO2 [Compound 6]
3.98 | 150.3 |  | FCCn1nc(Nc2cc(F)cc(F)c2)nc1-c1ccnc(C2CC2)c1 [Compound 177]
> 10 |  | 938 | CNC(=O)CCn1nc(Nc2cccc(C(F)(F)F)c2)nc1-c1ccncc1 [Compound 11]
> 10 |  |  | CN(C)C(=O)Cn1nc(Nc2cccc(C(F)(F)F)c2)nc1-c1ccc2c(c1)OCCO2 [Compound 23]
> 10 | 171.2 |  | CC(=O)NCCCn1nc(Nc2ccc(F)c(C(F)(F)F)c2)nc1-c1ccnc(C)c1 [Compound 27]
7.94 | 158.2 to 159 | 583 | OCCn1nc(Nc2cccc(C(F)(F)F)c2)nc1-c1cccnc1 [Compound 16]
> 10 | 247 |  | CNC(=O)Cn1nc(Nc2cc(F)cc(F)c2)nc1-c1ccnc(NC)c1 [Compound 178]
7.94 | 147.2 | 641 | COCCn1nc(Nc2cccc(C(F)(F)F)c2)nc1-c1ccncc1 [Compound 52]
3.16 | 113.1 to 115.1 |  | CN(C)C(=O)CCn1nc(N(C)c2ccc(F)c(C(F)(F)F)c2)nc1-c1ccc2c(c1)OCCO2 [Compound 135]

Reference: patent US8143419B2, “Trisubstituted 1,2,4-triazoles” (Janssen Pharmaceutica N. V., priority 2006, dated 2012)
